According to patent US20120171123A1, “USES AND COMPOSITIONS FOR TREATMENT OF RHEUMATOID ARTHRITIS” (priority 2006, published 2012):
“And” between values parts separate entries of the source, which are not always exact repeats. Identical values can stand only once.

Tested on: patients with active rheumatoid arthritis
Assay: Study A: EULAR response (moderate/good)
Assay type: in vivo, human
Details: for Good EULAR response (%) / Moderate EULAR response (%): LOCF
Description: In one embodiment, the invention provides a method for determining the efficacy of a TNFα inhibitor, including a human TNFα antibody, for treating RA in a subject, using the EULAR response of a subject or patient population. European League Against Rheumatism (EULAR) Response Criteria uses a Disease Activity Score (DAS) for defining response. To be classified as responders, patients should have a significant change in DAS and also low current disease activity. Response is defined as both: (a) change in disease activity from baseline and (b) the level of disease activity reached during follow-up. Criteria used to define DAS include: Ritchie articular index, swollen joint count (44-joint count), erythrocyte sedimentation rate, and […]. A modified version of the DAS criteria, DAS28, uses a 28-joint count for swollen and tender joints. Response is defined as a combination of a significant change from baseline and the level of disease activity attained. Good response is defined as a significant decrease in DAS (>1.2) and a low level of disease activity (< or =2.4). Non-response is defined as a decrease < or =0.6, or a decrease >0.6 and < or =1.2 with an attained DAS >3.7. Any other scores are regarded as moderate responses. Thus, three categories are defined: good, moderate, and non-responders. For details of EULAR criteria see Van Gestel et al. (1996) 39(1):34-40, incorporated by reference herein.
The study design included a 12 week open label treatment period followed by a continuation period examining safety and efficacy. […] The main inclusion criteria for the study were the following: males and females ≧18 years; rheumatoid arthritis (RA; defined by ACR criteria) for ≧3 months; unsatisfactory response (or intolerance) to at least one prior DMARD; and patients with active RA (DAS28≧3.2). Baseline demographics and disease severity is shown below in Table 1:
Efficacy of adalimumab treatment was determined by examining signs and symptoms of the patients. Various assays were used to determine efficacy, including ACR response, EULAR response, TJC and SJC count, and DAS28.
The objective of this study was to evaluate the impact of prior biologic therapies, in particular TNF-antagonists etanercept (ETA) and infliximab (INF), on key efficacy parameters of adalimumab therapy in patients with long-standing RA in clinical practice. To evaluate the impact of prior biological therapies, patients with moderate to severe RA enrolled at 450 sites in 11 European countries plus Australia (Study A). Patients with moderate to severe RA and an inadequate response to prior DMARD therapies were enrolled in a 12-week open-label study with an optional extension phase. […] Patients with previous biologic treatment must have received the last administration at least 8 weeks before enrollment Routine safety and efficacy data were collected at weeks 2, 6, and 12, and every 8 weeks in the extension phase. Efficacy parameters included ACR20, ACR50, ACR70, EULAR Response, HAQ, tender and swollen joint count (TJC28/SJC28), and DAS28. […] For this interim analysis, efficacy outcomes were evaluated after 12 weeks of therapy per the number and type of prior biologics used: None, any (ETA, INF, anakinra), ETA only, INF only, or ETA and INF but not anakinra.
Patients with long-standing, moderate to severe RA were enrolled in Study A at 450 sites in 12 different countries. The study design for Study A is outlined in FIG. 21. […] Previous treatment with other biologics was allowed up to 8 weeks before enrollment. Patients met the following inclusion criteria: Age ≧18 years; RA (defined by American College of Rheumatology criteria) for ≧3 months; active, moderate to severe RA (Disease Activity Score (DAS28)≧3.2); unsatisfactory response or intolerance to at least one prior DMARD, including biologics. Efficacy assessments were performed at weeks 0 (baseline), 2, 6, and 12. […]

[1] = Week 12, No prior ETA and/or INF (n=5711)
[2] = Week 12, Prior ETA and/or INF (n=899)
[3] = Week 12, concomitant Cq/Hcq + mtx (n=153)
[4] = Week 12, concomitant LEF only (n=557)
[5] = Week 12, concomitant MTX + LEF (n=123)
[6] = Week 12, concomitant MTX only (n=1561)
[7] = Week 12, concomitant QC/HQC (n=85)
[8] = Week 12, concomitant SSZ only (n=89)
[9] = Wk 12, concomitant MTX Im 15 mg (N=76), no other DMARD
[10] = Wk 12, concomitant MTX Iv 15 mg (N=23), no other DMARD
[11] = Wk 12, concomitant MTX Sc 15 mg (N=37), no other DMARD
[12] = Wk 12, concomitant MTX oral 15 mg (N=405), no other DMARD
[13] = Wk 12, concomitant MTX oral ≦7.5 (N=127), no other DMARD
[14] = Wk 12, concomitant MTX oral ≧20 mg (N=216), no other DMARD
[15] = week 12, concomitant hydroxychloroquine exclusively
[16] = week 12, concomitant leflunomide exclusively
[17] = week 12, concomitant mtx exclusively
[18] = week 12, concomitant sulfasalazine exclusively
[19] = week 12, prior biologic: ETA + INF

Substance: adalimumab: human anti-TNF mAb (HUMIRA, Abbott Laboratories), described in U.S. Pat. No. 6,090,382 as D2E7
- Good EULAR response (12 weeks, N=2008 analysis): 34%
- Moderate EULAR response (12 weeks, N=2008 analysis): 82%
- Moderate EULAR response (12 weeks, no prior response to ETA and INF): 50%
- Good EULAR response (%) (Week 12): 32%
- Moderate EULAR response (%) (Week 12): 81%
- Good EULAR [1]: 35 % of patients
- Moderate EULAR [1]: 84 % of patients
- Good EULAR [2]: 23 % of patients
- Moderate EULAR [2]: 76 % of patients
- Good EULAR [3]: 40 % of patients
- Moderate EULAR [3]: 88 % of patients
- Good EULAR response [4]: 31%
- Moderate EULAR response [4]: 79%
- Good EULAR response [5]: 29%
- Moderate EULAR response [5]: 86%
- Good EULAR response (Week 12, concomitant MTX + SSZ): 41%
- Moderate EULAR response (Week 12, concomitant MTX + SSZ): 89%
- Good EULAR response [6]: 39%
- Moderate EULAR response [6]: 84%
- Good EULAR response [7]: 25%
- Moderate EULAR response [7]: 85%
- Good EULAR response [8]: 39%
- Moderate EULAR response [8]: 75%
- Good EULAR response (%) (Week 28): 37%
- Moderate EULAR response (%) (Week 28): 81%
- Good EULAR response (%) (Week 36): 37%
- Moderate EULAR response (%) (Week 36): 82%
- Good EULAR response (%) (Week 52): 38%
- Moderate EULAR response (%) (Week 52): 82%
- Good EULAR response [9]: 38%
- Moderate EULAR response [9]: 80%
- Good EULAR response [10]: 41%
- Moderate EULAR response [10]: 86%
- Good EULAR response [11]: 25%
- Moderate EULAR response [11]: 86%
- Good EULAR response [12]: 39%
- Moderate EULAR response [12]: 86%
- Good EULAR response [13]: 36%
- Moderate EULAR response [13]: 84%
- Good EULAR response [14]: 50%
- Moderate EULAR response [14]: 89%
- at least a Moderate EULAR response (week 2, French patients): 64%
- Good EULAR response (week 12, 1 prior biologic): 25%
- Moderate EULAR response (week 12, 1 prior biologic): 78%
- Good EULAR response (week 12, 2 prior biologics): 11%
- Moderate EULAR response (week 12, 2 prior biologics): 76%
- Good EULAR response (week 12, 3 prior biologics): 8%
- Moderate EULAR response (week 12, 3 prior biologics): 75%
- at least a Moderate EULAR response (week 12, French patients): 80%
- Good EULAR response (week 12, all patients): 34%
- Moderate EULAR response (week 12, all patients): 83%
- Good EULAR [15]: 25 % of patients
- Moderate EULAR [15]: 75 % of patients
- Good EULAR [16]: 31 % of patients
- Moderate EULAR [16]: 79 % of patients
- Good EULAR [17]: 39 % of patients
- Moderate EULAR [17]: 84 % of patients
- Good EULAR [18]: 31 % of patients
- Moderate EULAR [18]: 79 % of patients
- Good EULAR response (week 12, no prior biologic): 34%
- Moderate EULAR response (week 12, no prior biologic): 81%
- Good EULAR (week 12, prior anakinra): 36 % of patients
- Moderate EULAR (week 12, prior anakinra): 75 % of patients
- Good EULAR (week 12, prior biologic (any)): 22 % of patients
- Moderate EULAR (week 12, prior biologic (any)): 77 % of patients
- Good EULAR response (week 12, prior etanercept only): 25% and 24%
- Moderate EULAR response (week 12, prior etanercept only): 76%
- Good EULAR response (week 12, prior infliximab only): 22%
- Moderate EULAR response (week 12, prior infliximab only): 80%
- Good EULAR (week 12, prior biologic: Any): 23 % of patients
- Moderate EULAR (week 12, prior biologic: Any): 75 % of patients
- Good EULAR (week 12, prior biologic: ETA): 21 % of patients
- Moderate EULAR (week 12, prior biologic: ETA): 74 % of patients
- Good EULAR [19]: 12 % of patients
- Moderate EULAR [19]: 61 % of patients
- Good EULAR (week 12, prior biologic: INF): 25 % of patients
- Moderate EULAR (week 12, prior biologic: INF): 78 % of patients
- Good EULAR (week 12, prior biologic: None): 39 % of patients
- Moderate EULAR (week 12, prior biologic: None): 82 % of patients
